#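 Cells were grown in 96-well plates and exposed to each compound for 48 hours at five concentrations; endpoints were interpolated linearly between bracketing concentrations, or set to the highest concentration if not reached. The concentration for 50% growth inhibition is given as GI50. At the TGI there is no net growth.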
# Tests used:
# Assay in all cases: inhibition of tumour cell growth, NCI panel, 48 h
# SK-OV-3 ovarian = system: SK-OV-3 ovarian
# CAKI-1 renal = system: CAKI-1 renal
# SF-539 CNS = system: SF-539 CNS
# SK-MEL-2 melanoma = system: SK-MEL-2 melanoma
# OVCAR-8 ovarian = system: OVCAR-8 ovarian
# M14 melanoma = system: M14 melanoma
# EKVX NSCLC = system: EKVX NSCLC
# MOLT-4 leukemia = system: MOLT-4 leukemia
# 786-0 renal = system: 786-0 renal
# IGROV1 ovarian = system: IGROV1 ovarian
# RPMI-8226 leukemia = system: RPMI-8226 leukemia
# NCI-H460 lung = system: NCI-H460 lung
# K-562 leukemia = system: K-562 leukemia
# UO-31 renal = system: UO-31 renal
# COLO 205 colon = system: COLO 205 colon
# HCT-15 colon = system: HCT-15 colon
# HL-60(TB) leukemia = system: HL-60(TB) leukemia
# OVCAR-5 ovarian = system: OVCAR-5 ovarian
# SF-295 CNS = system: SF-295 CNS
# TK-10 renal = system: TK-10 renal
# U251 CNS = system: U251 CNS
# NCI-H522 lung = system: NCI-H522 lung
# OVCAR-3 ovarian = system: OVCAR-3 ovarian
# MALME-3M melanoma = system: MALME-3M melanoma
# NCI-H23 lung = system: NCI-H23 lung
# SNB-75 CNS = system: SNB-75 CNS
# OVCAR-4 ovarian = system: OVCAR-4 ovarian
# SW-620 colon = system: SW-620 colon
# HT29 colon = system: HT29 colon
# HCC-2998 colon = system: HCC-2998 colon
# SN12C renal = system: SN12C renal
# HCT-116 colon = system: HCT-116 colon
# ACHN renal = system: ACHN renal
# NCI-H226 lung = system: NCI-H226 lung
# SF-268 CNS = system: SF-268 CNS
# HOP-62 NSCLC = system: HOP-62 NSCLC
# HOP-92 NSCLC = system: HOP-92 NSCLC
# UACC-257 melanoma = system: UACC-257 melanoma
# A549 NSCLC = system: A549 NSCLC
# LOX IMVI melanoma = system: LOX IMVI melanoma
# KM20L2 colon = system: KM20L2 colon
# KM12 colon = system: KM12 colon
# SK-MEL-28 melanoma = system: SK-MEL-28 melanoma
# SNB-19 CNS = system: SNB-19 CNS
# A498 renal = system: A498 renal
# SK-MEL-5 melanoma = system: SK-MEL-5 melanoma
# UACC-62 melanoma = system: UACC-62 melanoma
smiles,measurement,setting,value
CC(=O)[O-].O=C([CH-]C(=O)c1ccccc1)c1ccccc1.O=C([CH-]C(=O)c1ccccc1)c1ccccc1.[Y+3],GI50,SK-OV-3 ovarian,8.31 µM
same,TGI,SK-OV-3 ovarian,37.1 µM
same,GI50,CAKI-1 renal,4.53 µM
same,TGI,CAKI-1 renal,19.4 µM
same,GI50,SF-539 CNS,8.67 µM
same,TGI,SF-539 CNS,37 µM
same,GI50,SK-MEL-2 melanoma,2.85 µM
same,TGI,SK-MEL-2 melanoma,9.69 µM
same,GI50,OVCAR-8 ovarian,3.04 µM
same,TGI,OVCAR-8 ovarian,20.6 µM
same,GI50,M14 melanoma,5.34 µM
same,TGI,M14 melanoma,18.9 µM
same,GI50,EKVX NSCLC,3.59 µM
same,TGI,EKVX NSCLC,17.8 µM
same,GI50,MOLT-4 leukemia,2.91 µM
same,TGI,MOLT-4 leukemia,32.3 µM
same,GI50,786-0 renal,3.9 µM
same,TGI,786-0 renal,18 µM
same,GI50,IGROV1 ovarian,6.94 µM
same,TGI,IGROV1 ovarian,35.8 µM
same,GI50,RPMI-8226 leukemia,4.47 µM
same,TGI,RPMI-8226 leukemia,33 µM
same,GI50,NCI-H460 lung,2.69 µM
same,TGI,NCI-H460 lung,18.4 µM
same,GI50,K-562 leukemia,3.45 µM
same,TGI,K-562 leukemia,> 100 µM
same,GI50,UO-31 renal,3.84 µM
same,TGI,UO-31 renal,9.66 µM
same,GI50,COLO 205 colon,8.61 µM
same,TGI,COLO 205 colon,22.1 µM
same,GI50,HCT-15 colon,5.45 µM
same,TGI,HCT-15 colon,26.7 µM
same,GI50,HL-60(TB) leukemia,2.44 µM
same,TGI,HL-60(TB) leukemia,10.8 µM
same,GI50,OVCAR-5 ovarian,17.3 µM
same,TGI,OVCAR-5 ovarian,80.6 µM
same,GI50,SF-295 CNS,3.29 µM
same,TGI,SF-295 CNS,18.5 µM
same,GI50,TK-10 renal,8.27 µM
same,TGI,TK-10 renal,66.5 µM
same,GI50,U251 CNS,3.91 µM
same,TGI,U251 CNS,31.5 µM
same,GI50,NCI-H522 lung,1.58 µM
same,TGI,NCI-H522 lung,6.06 µM
same,GI50,OVCAR-3 ovarian,3.12 µM
same,TGI,OVCAR-3 ovarian,15.8 µM
same,GI50,MALME-3M melanoma,8.02 µM
same,TGI,MALME-3M melanoma,39.5 µM
same,GI50,NCI-H23 lung,2.2 µM
same,TGI,NCI-H23 lung,11.1 µM
same,GI50,SNB-75 CNS,3.1 µM
same,TGI,SNB-75 CNS,7.42 µM
same,GI50,OVCAR-4 ovarian,5.73 µM
same,TGI,OVCAR-4 ovarian,77.3 µM
same,GI50,SW-620 colon,6.18 µM
same,TGI,SW-620 colon,46 µM
same,GI50,HT29 colon,7.69 µM
same,TGI,HT29 colon,20.7 µM
same,GI50,HCC-2998 colon,5.72 µM
same,TGI,HCC-2998 colon,19.7 µM
same,GI50,SN12C renal,6.23 µM
same,TGI,SN12C renal,38 µM
same,GI50,HCT-116 colon,4.97 µM
same,TGI,HCT-116 colon,19.3 µM
same,GI50,ACHN renal,5.52 µM
same,TGI,ACHN renal,22.9 µM
same,GI50,NCI-H226 lung,2.56 µM
same,TGI,NCI-H226 lung,9.69 µM
same,GI50,SF-268 CNS,4.27 µM
same,TGI,SF-268 CNS,31.3 µM
same,GI50,HOP-62 NSCLC,2.31 µM
same,TGI,HOP-62 NSCLC,13.4 µM
same,GI50,HOP-92 NSCLC,4.04 µM
same,TGI,HOP-92 NSCLC,18.9 µM
same,GI50,UACC-257 melanoma,9.8 µM
same,TGI,UACC-257 melanoma,31.7 µM
same,GI50,A549 NSCLC,10.3 µM
same,TGI,A549 NSCLC,34.3 µM
same,GI50,LOX IMVI melanoma,4.95 µM
same,TGI,LOX IMVI melanoma,23.4 µM
same,GI50,KM20L2 colon,6.51 µM
same,TGI,KM20L2 colon,26.3 µM
same,GI50,KM12 colon,4.36 µM
same,TGI,KM12 colon,24.5 µM
same,GI50,SK-MEL-28 melanoma,8.34 µM
same,TGI,SK-MEL-28 melanoma,39 µM
same,GI50,SNB-19 CNS,6.17 µM
same,TGI,SNB-19 CNS,64.7 µM
same,GI50,A498 renal,16.7 µM
same,TGI,A498 renal,41.1 µM
same,GI50,SK-MEL-5 melanoma,3.56 µM
same,TGI,SK-MEL-5 melanoma,14.2 µM
same,GI50,UACC-62 melanoma,3.8 µM
same,TGI,UACC-62 melanoma,17.8 µM

# Source: PubChem BioAssay (NCI)
